From US20120053182A1, “METHODS OF ALLEVIATING OR TREATING SIGNS AND/OR SYMPTOMS ASSOCIATED WITH MODERATE TO SEVERE PARKINSON'S DISEASE” (SCHERING CORPORATION, priority 2009, published 2012)
Like-named read-outs stand apart in the source and are kept apart here.

Experiments:
[1] = tested on: akathisia induced by administration of Haldol; assay: Haldol-induced akathisia in healthy volunteers; type: in vivo, human; settings: composition providing about 10 mg, FIG. 4
Description: It is believed that a composition which provides an effective amount of the compound of Formula I will also prevent feelings of restlessness, of example, Haldol-induced akathesia.

[2] = tested on: patients suffering from Parkinson's disease; assay: Clinical trial in patients with moderate to severe Parkinson's disease receiving L-dopa therapy; type: in vivo, human
Experimental: A clinical trial was carried out using 253 patients suffering from Parkinson's disease and receiving L-dopa therapy.
These patients were continued on their L-dopa therapy and randomized to receive in addition either a placebo (n=49), a composition administered orally BID in an amount providing 1 mg of the compound of Formula I (n=49), a composition administered orally BID in an amount providing 2 mg of the compound of Formula I (n=49), a composition administered orally BID in an amount providing 5 mg of the compound of Formula I (n=49), or a composition administered orally BID in an amount providing 10 mg of the compound of Formula I (n=57). This treatment was continued for 12 weeks while the patients kept a diary recording the “Off-time” periods, “On-time” periods (recording whether “On-time” was accompanied by dyskinesia or troubling dyskinesia) and their total amount of sleep time. These patients were also interviewed clinically and were evaluated as well in accordance with the UPDRS rating scale, as well as for when, and the duration of, sleep attacks experienced during the study. Blood chemistry was followed clinically at regular intervals.
Moreover, with reference to FIG. 3, assessment of patients was made using the Unified Parkinson's Disease Rating Scale (UPDRS) following several weeks of administration. […] With reference to FIG. 3, for example, UPDRS, part III scores were improved by showing a decrease of at least about 3 points below the baseline score at the start of the study.

[3] = Bioavailability by age or sex in healthy human volunteers; type: in vivo; settings: composition used in the patient study
A2a receptors = molecular target: T1, A2a receptors (Homo sapiens, UniProt P29274); assay: PET scan receptor site occupancy study in healthy human volunteers; type: in vivo
T1 construct: PET scans of a human brain were obtained; from tissue; host or cells: brain of living healthy human volunteers (in vivo PET)
T1 sequence (P29274 whole entry): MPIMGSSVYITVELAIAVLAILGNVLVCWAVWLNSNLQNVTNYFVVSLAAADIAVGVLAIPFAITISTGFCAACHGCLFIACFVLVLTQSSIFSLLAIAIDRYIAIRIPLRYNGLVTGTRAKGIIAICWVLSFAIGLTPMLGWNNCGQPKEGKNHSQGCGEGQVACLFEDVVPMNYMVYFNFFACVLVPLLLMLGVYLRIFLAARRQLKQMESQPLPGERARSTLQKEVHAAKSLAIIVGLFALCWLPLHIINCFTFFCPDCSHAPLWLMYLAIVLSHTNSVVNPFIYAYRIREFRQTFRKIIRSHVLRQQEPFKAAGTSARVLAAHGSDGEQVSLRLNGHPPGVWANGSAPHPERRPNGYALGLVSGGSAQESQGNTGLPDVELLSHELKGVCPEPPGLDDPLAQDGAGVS
Experimental: In a separate study with healthy human volunteers, and with reference to FIG. 5, PET scans of a human brain were obtained after IV administration to a subject of a composition intravenous administration of the compound of Formula II which had been labeled with ^11C-radio-isotope and then after an interval subsequent intravenous administered the compound of Formula I.
This study was carried out using 18 subjects. Capsules containing a composition providing the compound of Formula I (unlabelled) in amounts of 10, 50, or 200 mg were also administered to a subset of test subjects prior to injection of the radio-labeled compound of Formula II. Using the information obtained from the PET scan regarding the extent, location, and inhibition of radiotracer binding permitted calculation of binding potentials for the compound of Formula I. The test subjects were also evaluated for plasma levels of the compound of Formula I during the study. […] These studies also indicate that the compound of Formula I has a selectivity for the A2a receptor site of 20,000:1 relative to binding at A1, A2b, and A3 receptor sites. This study is consistent with a therapeutic level of plasma concentration being provided by administering a composition orally which provides a human subject to whom it is administered with from at least about 2 mg of the compound of Formula I to about 10 mg of the compound of Formula I and preferably 5 mg of the compound of Formula I. It is believed that BID dosing of a composition providing from about 5 mg to about 50 mg of the compound of Formula I will provide at least about 50% receptor site occupancy for at least about 12 hours/day in at least about 80% of the human population and at least about 80% receptor site occupancy for at least about 18 hours/day in at least about 75% of the population.

[4] = Pharmacokinetics after oral administration to healthy human volunteers; type: in vivo; settings: composition providing about 5 mg, serum; for AUC: human, po, 5 mg, healthy human volunteers
[5] = at least about 2 mg BID oral, 12 weeks, with L-dopa, patient diary

UPDRS part IV scores ([2]; amount sufficient to maintain steady state serum level of at least about 50 ng/ml): not accompanied by an increase
proportion of "On-time" with dyskinesia or other motor complications ([2]; at least about 2 mg BID oral, 12 weeks, with L-dopa): no rise
differences in bioavailability (AUC or Cmax) between groups divided by age or sex [3]: no statistically significant differences
receptor site occupancy (A2a receptors; BID dosing about 5 mg to about 50 mg, for at least about 12 hours/day in at least about 80% of the human population): at least 50%
receptor site occupancy (A2a receptors; BID dosing about 5 mg to about 50 mg, for at least about 18 hours/day in at least about 75% of the population): at least 80%
receptor occupancy at 0.05 µg/mL (A2a receptors; human, plasma concentrations in excess of about 50 ng/ml, believed to be Emax): ~90%
plasma concentration at 50% receptor site occupancy (A2a receptors; on average, PET, humans): 6 ng/mL
receptor site occupancy (A2a receptors; plasma concentration levels exceeding about 25 ng/mL in humans): high level of receptor site occupancy
Cmax ([4]; average across healthy human volunteers): 112 to 130 ng/mL
AUC ([4]; AUC to time serum level drops below detectable limit, read-out: AUC(tf)): 336 to 457 ng·h/mL
AUC ([4]; read-out: AUC values measured from t=0 to 1 hr.): 352 to 478 ng·h/mL
Compound: COCCOc1ccc(N2CCN(CCN3N=CC4c5nc(-c6ccco6)nn5C(N)=NC43)CC2)cc1 (centres unmarked) [compound of Formula I]
suppression of Haldol-induced akathisia [1]: successful in suppressing akathisia
reports of common adverse events: Parkinsonism; somnolence; dyskinesia ([2]; 1, 2, 5 or 10 mg BID oral, 12 weeks, versus placebo group): no more frequency than was reported in the placebo group
decrease of UPDRS part III score below baseline ([2]; amount sufficient to maintain steady state serum level of at least about 50 ng/ml, FIG. 3, 2 hours post dose): at least 3 points
periods of "Off-time" [2, 5]: decrease
periods of "On-time" [2, 5]: improvement
average daily patient "Off-time" periods ([2]; at least about 5 mg BID oral): decrease
average daily patient "On-time" periods ([2]; at least about 5 mg BID oral): increase
objectional side effects, for example, dyskinesia, somnolence, or insomnia ([2]; at least about 5 mg BID oral): not accompanied by objectional side effects
UPDRS score ([2]; at least about 5 mg BID oral, throughout the course of the study): improvement in UPDRS score which is maintained throughout the course of the study
induction of sleep attacks ([2]; effective amount, patient assessment by clinicians): not associated with induction of sleep attacks
patient sleep patterns (total daily sleep time) ([2]; from about 2 mg BID to about 10 mg BID, FIG. 2): does not significantly adversely effect patient sleep patterns
brain distribution by PET scan (A2a receptors; human brain, 11C-labelled compound of Formula II as radiotracer): high concentrations of the compound of Formula I in regions of the brain known to contain high levels of A2a receptors
